In paper PMC9573667, “Efficient Oxidative Dearomatisations of Substituted Phenols Using Hypervalent Iodine (III) Reagents and Antiprotozoal Evaluation of the Resulting Cyclohexadienones against T. b. rhodesiense and P. falciparum Strain NF54” (Molecules, 2022):
Where two headings read alike, the source gives them in different places.

Key:
[1] = test system: L6 cells rat skeletal myoblasts; test: Cytotoxicity against L6 cells (Alamar blue); type: cell-based; conditions: read-out: Cyt. L6 IC50
Procedure: The antiprotozoal activity of 5a,b has already been described in the literature. […] Cytotoxicity was determined using L6 rat skeletal myoblasts to calculate a selectivity index for each parasite (SI = IC50(L6)/IC50(parasite)).
Cytotoxicity was determined in vitro against rat L6 myoblasts as described; details are listed in the supplement. […]
1.3 Cytotoxicity against L6 cells
Assays were performed in 96-well microtiter plates, each well containing 100 μL of RPMI 1640 medium supplemented with 1% L-glutamine (200 mM) and 10% foetal bovine serum, and 4000 L6 cells (a […] cell line derived from rat skeletal myoblasts). Serial drug dilutions of 11 threefold dilution steps covering a range from 100 to 0.002 μg/mL were prepared. After 72 h of incubation, the plates were inspected under an inverted microscope to assure growth of the controls and sterile conditions. 10 μL of Alamar Blue solution was then added to each well and the plates incubated for another 2 h. Then the plates were read with a Spectramax Gemini XS microplate fluorometer (Molecular Devices Cooperation, Sunnyvale, CA, USA) using an excitation wavelength of 536 nm and an emission wavelength of 588 nm.
The IC50 values were calculated by linear regression from the sigmoidal dose inhibition curves using the microplate reader software Softmax Pro (Molecular Devices Cooperation, Sunnyvale, CA, USA).
Podophyllotoxin (Sigma P4405) was used as control.

[2] = test system: P. falciparum, strain NF54, erythrocytic stages; test: In vitro growth inhibition assay of Plasmodium falciparum NF54 ([3H]-hypoxanthine incorporation); type: cell-based; conditions: for IC50: Plasmodium falciparum; for ligand efficiency lipophilic price (LELP), P. falciparum / lipophilic ligand efficiency (LLE), P. falciparum: based on IC50 values in nmol/L, DataWarrior 5.5.0
Procedure: Antimalarial activity was determined in vitro against the erythrocytic stages of P. falciparum using the drug-sensitive strain NF54. Parasite proliferation was assessed by incorporation of [^3H]-hypoxanthine using a modified version of [75]; for details, please refer to the Supplementary Materials. The positive control was chloroquine.
1. Experimental of biological testing
1.1 In vitro growth inhibition assay of Plasmodium falciparum NF54
Plasmodium falciparum, strain NF54, erythrocytic stages, and the standard drug, chloroquine, were used for the assay. The parasite cultures incubated in RPMI 1640 medium with 5% AlbuMAXTM (without hypoxanthine) were exposed to serial drug dilutions in microtiter plates. After 48 h of incubation at 37 °C in a reduced oxygen atmosphere, 0.5 μCi [3H]-hypoxanthine was added to each well of the plate. Cultures were incubated for a further 24 h before they were harvested onto glass-fiber filters and washed with distilled water. The radioactivity was counted using a BetaplateTM liquid scintillation […]
counter (Wallac, Zurich). […]
concentration and expressed as percentage of the untreated controls. IC50 values were calculated from the sigmoidal inhibition curves using Microsoft Excel. Chloroquine was used as control. […]

[3] = test system: T. brucei rhodesiense, strain STIB900 trypomastigote forms; test: In vitro growth inhibition assay of Trypanosoma brucei rhodesiense STIB900 (Alamar blue); type: cell-based; conditions: for IC50: Trypanosoma brucei; for ligand efficiency lipophilic price (LELP), T. brucei rhodesiense / lipophilic ligand efficiency (LLE), T. brucei rhodesiense: based on IC50 values in nmol/L, DataWarrior 5.5.0
Procedure: Trypanocidal activity was determined in vitro against axenically grown bloodstream-forms of T. b. rhodesiense STIB900 as described in Refs. [76, 77] and detailed in the Supplementary Materials. Parasite proliferation was assessed via fluorescence of the redox-sensitive dye resazurin (Alamar blue). The drug melarsoprol was used as the positive control. […]
1.2 In vitro growth inhibition assay of Trypanosoma brucei rhodesiense
Trypanosoma brucei rhodesiense, STIB 900 strain, and the standard drug, melarsoprol, were used for the assay. Minimum Essential Medium (50 μL) supplemented with 25 mM HEPES, 1g/L additional glucose, 1% MEM non-essential amino acids (100x), 0.2 mM 2-mercaptoethanol, 1 mM Na-pyruvate and 15% heat-inactivated horse serum was added to each well of a 96-well microtiter plate. Serial drug dilutions of 11 three-fold dilution steps covering a range from 100 to 0.002 μg/mL were prepared. Then […]
mL double-distilled water) was then added to each well and incubation continued for a further 2–4 h.
Then, the plates were read with a Spectramax Gemini XS microplate fluorometer (Molecular Devices Cooperation, Sunnyvale, CA, USA) using an excitation wavelength of 536 nm and an emission wavelength of 588 nm. The IC50 values were calculated from the sigmoidal inhibition curves using the microplate reader software Softmax Pro (Molecular Devices Cooperation, Sunnyvale, CA, USA).
Melarsoprol was used as control. […]

[4] = NF54, strain NF54, erythrocytic stages, means of two to three measurements, SD <5%, read-out: P. falc. IC50
[5] = strain STIB900 trypomastigote forms, means of two to three measurements, SD <5%, read-out: T. b. rhod. IC50
[6] = L6 rat skeletal myoblasts, 72 h

SMILES	IC50 ([1]; Rattus norvegicus, L6, 72 h) [nM]	IC50 [2, 4] [nM]	ligand efficiency lipophilic price (LELP), P. falciparum [2]	lipophilic ligand efficiency (LLE), P. falciparum [2]	IC50 [3, 5] [nM]	ligand efficiency lipophilic price (LELP), T. brucei rhodesiense [3]	lipophilic ligand efficiency (LLE), T. brucei rhodesiense [3]	IC50 [1, 6] [nM]	melting point [°C]	IC50 ([3]; STIB900, stated in text in nM, read-out: T. brucei rhodesiense IC50) [nM]	IC50 ([2]; NF54, read-out: P. falc. IC50) [nM]	IC50 ([3]; read-out: T. b. rhod. IC50) [nM]	IC50 ([3]; read-out: T. brucei rhodesiense IC50) [nM]
COc1cc([C@@H]2c3cc4c(cc3[C@H](O)[C@H]3COC(=O)[C@H]23)OCO4)cc(OC)c1OC [Pod., podophyllotoxin, reference compound]	7												
COC(=O)CC1(O)C=CC(=O)C(Cl)=C1 (stereo not drawn) [Compound 4c, Methyl 2-(3-chloro-1-hydroxy-4-oxocyclohexa-2,5-dien-1-yl)acetate]		837	0.4433	5.8133	47	0.3676	7.0639	440					
COC(=O)CC1(O)C=CC(=O)C(F)=C1 (stereo not drawn) [Compound 4b, Methyl 2-(3-fluoro-1-hydroxy-4-oxocyclohexa-2,5-dien-1-yl)acetate]		644	0.07582	6.1451	78		7.0619	657					
O=C1C=CC2(C=C1)CCC(=O)O2 [Compound 4h, 1-Oxaspiro [4.5]deca-6,9-diene-2,8-dione]			0.1197	5.4846	4890	0.1253	5.2346	425	105 to 106				
O=C1C=CC(=O)c2cc(F)ccc21 [Compound 5d, 6-Fluoro-1,4-dihydronaphthalene-1,4-dione]		677	2.3657	4.6292	93	2.0757	5.4913	2170	119 to 120	< 100			
O=C1C=C(Cc2ccccc2)C(=O)c2ccccc21 [Compound 5c, 2-Benzyl-1,4-dihydronaphthalene-1,4-dione]	22000										917	80	< 100
COC(=O)/C=C/C1(O)C=CC(=O)C=C1 [Compound 4i, Methyl (2E)-3-(1-hydroxy-4-oxocyclohexa-2,5-dien-1-yl)prop-2-enoate]		657	0.07742	6.1355	108	0.0687		569					
COC(=O)CC1(O)C=C(Br)C(=O)C(Br)=C1 [Compound 4f, Methyl 2-(3,5-dibromo-1-hydroxy-4-oxocyclohexa-2,5-dien-1-yl)acetate]		391	1.613	5.4625	24	1.3564	6.6745	199					
COC(=O)CCC1(O)C=CC(=O)C=C1 [Compound 4g, Methyl 3-(1-hydroxy-4-oxocyclohexa-2,5-dien-1-yl)propanoate]			0.5999	4.7892	4870	0.5746	5.0134	> 100000	49 to 50				
COC(=O)CC1(O)C=C(Cl)C(=O)C(Cl)=C1 [Compound 4e, Methyl 2-(3,5-dichloro-1-hydroxy-4-oxocyclohexa-2,5-dien-1-yl)acetate]		245	1.1301	5.9275	10	0.9339	7.3167	116					
COC(=O)CC1(O)C=CC(=O)C=C1 [Compound 4a, Methyl 2-(1-hydroxy-4-oxocyclohexa-2,5-dien-1-yl)acetate]		969	-0.2447	6.1690	588	-0.2362	6.3859	391					
O=C1C=CC(=O)c2cc(F)c(F)cc21 [Compound 5e, 6,7-Difluoro-1,4-dihydronaphthalene-1,4-dione]		689	2.7178	4.5208	166	2.470	5.1389	4800	128 to 130				
Nc1nc(N)nc(Nc2ccc([As]3SCC(CO)S3)cc2)n1 (stereo not drawn) [Mel., melarsoprol, reference compound]	24200											4	
COC(=O)CC1(O)C=CC(=O)C(Br)=C1 (stereo not drawn) [Compound 4d, Methyl 2-(3-bromo-1-hydroxy-4-oxocyclohexa-2,5-dien-1-yl)acetate]		301	0.6181	6.1264	42	0.5464	6.9818	214					
CCN(CC)CCCC(C)Nc1ccnc2cc(Cl)ccc12 (stereo not drawn) [Chl., chloroquine, reference compound]	91100										2		
